Among the data in patent US12679878B2, “CRF2 receptor agonists and their use in therapy” (SANOFI, priority 2020, dated 2026) are EC50 and Emax values, retold here.

Structures are written as SMILES. Like-named read-outs stand apart in the source and are kept apart here. Starred links: 1 amine or outer side, 2 acyl side, 3 side chain; linkers in the order of their positions; H or OH if unused. Non-standard residues stand in square brackets, D forms with d. Residues, ends and D or L forms follow the SMILES beside them. Groups on a side chain read outwards from the residue. *: point of attachment. C18 diacid = O=C(O)CCCCCCCCCCCCCCCCC(=O)*; γGlu = O=C(O)[C@H](CCC(=O)[*:2])N[*:1]; AEEA = NCCOCCOCC(=O)O; Aib = CC(C)(N)C(=O)O Bounds are passed on as bounds.

The EC50 is the concentration at which the effect is half-maximal. What is called Emax is the greatest response seen or fitted, relative to the assay's reference.

One assay has as its target T1, human CRF2α receptor (Homo sapiens, UniProt Q13324).
T1 construct: expressed in transfected cells; host or cells: TeloHEAC
T1 sequence (Q13324 1-411): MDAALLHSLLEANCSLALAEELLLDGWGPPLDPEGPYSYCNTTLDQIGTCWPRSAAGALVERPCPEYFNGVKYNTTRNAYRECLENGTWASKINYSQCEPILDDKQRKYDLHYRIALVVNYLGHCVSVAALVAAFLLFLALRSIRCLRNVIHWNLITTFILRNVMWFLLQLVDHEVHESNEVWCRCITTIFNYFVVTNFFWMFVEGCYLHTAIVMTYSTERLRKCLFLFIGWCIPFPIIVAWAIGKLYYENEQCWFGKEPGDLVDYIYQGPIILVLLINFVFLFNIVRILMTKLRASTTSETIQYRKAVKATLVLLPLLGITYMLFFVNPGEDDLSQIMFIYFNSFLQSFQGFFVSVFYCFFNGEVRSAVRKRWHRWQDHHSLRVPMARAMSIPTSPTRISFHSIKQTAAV
Put plainly: cAMP agonism at human CRF2 α receptor in TeloHEAC cells (Example 7). Format: cell-based. The settings on record: cAMP HTRF, TeloHEAC cells stably expressing human CRF2 α. The method, boiled down: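 Cryopreserved cells are thawed, washed and resuspended in IBMX-containing (2 mM) HEPES-buffered HBSS with or without 0.1% HSA. Compound incubation runs 30 min at room temperature with 2000 cells per well, then cAMP is measured by time-resolved FRET. Potency is expressed as EC50, efficacy relative to urocortin 2 at 1000 nM.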
On the technique in general: In TR-FRET formats the signal depends on donor and acceptor labels being close together.

Another assay deals with T2, CRF1R receptor (Homo sapiens, UniProt P34998).
T2 construct: host or cells: CHO-K1 clone 2
T2 sequence (P34998 24-415): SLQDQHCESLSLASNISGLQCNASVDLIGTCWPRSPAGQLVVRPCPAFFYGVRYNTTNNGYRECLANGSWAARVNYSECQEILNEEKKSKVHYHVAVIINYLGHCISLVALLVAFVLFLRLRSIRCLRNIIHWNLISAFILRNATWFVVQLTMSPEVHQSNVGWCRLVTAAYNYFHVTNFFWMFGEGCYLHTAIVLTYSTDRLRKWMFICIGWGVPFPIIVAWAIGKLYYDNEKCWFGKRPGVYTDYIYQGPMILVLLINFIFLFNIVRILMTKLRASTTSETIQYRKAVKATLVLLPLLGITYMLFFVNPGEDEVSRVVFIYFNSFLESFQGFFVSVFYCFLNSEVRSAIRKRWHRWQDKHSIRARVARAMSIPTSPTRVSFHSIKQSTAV
Put plainly: cAMP activity at anti-target CRF1R, CHO-K1 cell line clone 2 (Example 19.10). Format: cell-based. To be noted: CRF1R CHO-K1 clone 2; for EC50: 0% HSA, read-out: EC50 [nM] 0% HSA; for Emax: 100% = Sauvagine at 100 nM. The method, boiled down:
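The cAMP read-out used the same protocol as the previous assay, except that Sauvagine at 100 nM set the 100% activation control. Cells were CHO-K1 clone 2 overexpressing CRF1R, cultured in F12 medium with 10% FBS and G418 and stored frozen until use.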

[1] abbreviates: 0% HSA, read-out: EC50 [nM], 0% HSA.
Where [2] appears, read: 0.1% HSA, read-out: EC50 [nM], 0.1% HSA.

On to `CC[C@H](C)[C@H](N)C(=O)N[C@H](C(=O)N[C@@H](CC(C)C)C(=O)N[C@@H](CO)C(=O)N[C@@H](CC(C)C)C(=O)N[C@@H](CC(=O)O)C(=O)N[C@H](C(=O)N1CCC[C@H]1C(=O)N[C@H](C(=O)N[C@@H](CCCCN)C(=O)N[C@@H](CC(C)C)C(=O)N[C@@H](CCCCNC(=O)COCCOCCNC(=O)COCCOCCNC(=O)CC[C@H](NC(=O)CCCCCCCCCCCCCCCCC(=O)O)C(=O)O)C(=O)N[C@@H](CCC(N)=O)C(=O)N[C@H](C(=O)N[C@@H](CC(C)C)C(=O)N[C@@H](CC(C)C)C(=O)N[C@@H](CCCCN)C(=O)N[C@@H](CCC(N)=O)C(=O)N[C@@H](CCC(=O)O)C(=O)N[C@@H](CCCNC(=N)N)C(=O)N[C@@H](CCC(N)=O)C(=O)N[C@@H](CCCCN)C(=O)NC(C)(C)C(=O)N[C@@H](CCC(N)=O)C(=O)N[C@@H](CCCNC(=N)N)C(=O)N[C@@H](CCC(N)=O)C(=O)N[C@@H](CCC(N)=O)C(=O)N[C@@H](C)C(=O)N[C@@H](CCC(=O)O)C(=O)N[C@@H](CCCCN)C(=O)N[C@@H](CC(N)=O)C(=O)N[C@@H](CCCCN)C(=O)N[C@@H](CCC(N)=O)C(=O)N[C@H](C(=O)N[C@@H](CC(C)C)C(=O)N[C@@H](C)C(=O)N[C@@H](CCC(N)=O)C(=O)N[C@H](C(N)=O)C(C)C)[C@@H](C)CC)[C@@H](C)CC)[C@@H](C)CC)C(C)C)C(C)C` [compound 117] (H-IVLSLDVPIKLK([AEEA-AEEA-γGlu-C18 diacid])QILLKQERQK[Aib]QRQQAEKNKQILAQV-NH2), for which the concentration for a half-maximal effect (EC50) on human CRF2α receptor (setting [1]) is 0.11 nM. Moreover, at CRF1R receptor, the EC50 was greater than 100 nM and the Emax is -6%.
As for `CC[C@H](C)[C@H](N)C(=O)N[C@H](C(=O)N[C@@H](CC(C)C)C(=O)N[C@@H](CO)C(=O)N[C@@H](CC(C)C)C(=O)N[C@@H](CC(=O)O)C(=O)N[C@@H](C(=O)N1CCC[C@H]1C(=O)N[C@H](C(=O)N[C@@H](CCCCN)C(=O)N[C@@H](CC(C)C)C(=O)N[C@@H](CCCCNC(=O)COCCOCCNC(=O)COCCOCCNC(=O)CC[C@H](NC(=O)CCCCCCCCCCCCCCCCC(=O)O)C(=O)O)C(=O)N[C@@H](CCC(N)=O)C(=O)N[C@H](C(=O)N[C@@H](CC(C)C)C(=O)N[C@@H](CC(C)C)C(=O)N[C@@H](CCCCN)C(=O)N[C@@H](CCC(N)=O)C(=O)N[C@@H](CCC(=O)O)C(=O)N[C@@H](CCCNC(=N)N)C(=O)N[C@@H](CCC(N)=O)C(=O)N[C@@H](CCCCN)C(=O)NC(C)(C)C(=O)N[C@@H](CCC(N)=O)C(=O)N[C@@H](CCCNC(=N)N)C(=O)N[C@@H](CCC(N)=O)C(=O)N[C@@H](CCCCN)C(=O)N[C@@H](C)C(=O)N[C@@H](CCC(=O)O)C(=O)N[C@@H](CCCCN)C(=O)N[C@@H](CC(N)=O)C(=O)N[C@@H](CCCCN)C(=O)N[C@@H](CCC(N)=O)C(=O)N[C@H](C(=O)N[C@@H](CC(C)C)C(=O)N[C@@H](C)C(=O)N[C@@H](CCC(N)=O)C(=O)N[C@H](C(N)=O)C(C)C)[C@@H](C)CC)[C@@H](C)CC)[C@@H](C)CC)C(C)C)C(C)C` [compound 118] (H-IVLSLD[dV]PIKLK([AEEA-AEEA-γGlu-C18 diacid])QILLKQERQK[Aib]QRQKAEKNKQILAQV-NH2; N-terminus assumed), the EC50 at human CRF2α receptor (setting [1]) is 0.04 nM; on human CRF2α receptor (setting [2]), 2.13 nM; at CRF1R receptor it was greater than 100 nM. Also, at CRF1R receptor, the Emax was 1.5%.
With `CC[C@H](C)[C@H](N)C(=O)N[C@H](C(=O)N[C@@H](CC(C)C)C(=O)N[C@@H](CO)C(=O)N[C@@H](CC(C)C)C(=O)N[C@@H](CC(=O)O)C(=O)N[C@H](C(=O)N1CCC[C@H]1C(=O)N[C@H](C(=O)N[C@@H](CCCCN)C(=O)N[C@@H](CC(C)C)C(=O)N[C@@H](CCCCNC(=O)COCCOCCNC(=O)COCCOCCNC(=O)CC[C@H](NC(=O)CCCCCCCCCCCCCCCCC(=O)O)C(=O)O)C(=O)N[C@@H](CCC(N)=O)C(=O)N[C@H](C(=O)N[C@@H](CC(C)C)C(=O)N[C@@H](CC(C)C)C(=O)N[C@@H](CCCCN)C(=O)N[C@@H](CCC(N)=O)C(=O)N[C@@H](CCC(=O)O)C(=O)N[C@@H](CCCNC(=N)N)C(=O)N[C@@H](CCC(N)=O)C(=O)N[C@@H](CCCCN)C(=O)N[C@@H](CCCCN)C(=O)NC(C)(C)C(=O)N[C@@H](CCCNC(=N)N)C(=O)N[C@@H](CCC(N)=O)C(=O)N[C@@H](CCCCN)C(=O)N[C@@H](C)C(=O)N[C@@H](CCC(=O)O)C(=O)N[C@@H](CCCCN)C(=O)N[C@@H](CC(N)=O)C(=O)N[C@@H](CCCCN)C(=O)N[C@@H](CCC(N)=O)C(=O)N[C@H](C(=O)N[C@@H](CC(C)C)C(=O)N[C@@H](C)C(=O)N[C@@H](CCC(N)=O)C(=O)N[C@H](C(N)=O)C(C)C)[C@@H](C)CC)[C@@H](C)CC)[C@@H](C)CC)C(C)C)C(C)C` [compound 119] (H-IVLSLDVPIKLK([AEEA-AEEA-γGlu-C18 diacid])QILLKQERQKK[Aib]RQKAEKNKQILAQV-NH2), the concentration giving a half-maximal response (EC50) was 0.13 nM on human CRF2α receptor (setting [1]), 4.97 nM on human CRF2α receptor (setting [2]) and greater than 100 nM at CRF1R receptor. Also, the Emax at CRF1R receptor turned out to be 0.4%.
Taken in the same sequence, the figures for `CC[C@H](C)[C@H](N)C(=O)N[C@H](C(=O)N[C@@H](CC(C)C)C(=O)N[C@@H](CO)C(=O)N[C@@H](CC(C)C)C(=O)N[C@@H](CC(=O)O)C(=O)N[C@H](C(=O)N1CCC[C@H]1C(=O)N[C@H](C(=O)N[C@@H](CCCCN)C(=O)N[C@@H](CC(C)C)C(=O)N[C@@H](CCCCNC(=O)COCCOCCNC(=O)COCCOCCNC(=O)CC[C@H](NC(=O)CCCCCCCCCCCCCCCCC(=O)O)C(=O)O)C(=O)N[C@@H](CCC(N)=O)C(=O)N[C@H](C(=O)N[C@@H](CC(C)C)C(=O)N[C@@H](CC(C)C)C(=O)N[C@@H](CCCCN)C(=O)N[C@@H](CCC(N)=O)C(=O)N[C@@H](CCC(=O)O)C(=O)N[C@@H](CCCNC(=N)N)C(=O)N[C@@H](CCC(N)=O)C(=O)N[C@@H](CCCCN)C(=O)N[C@@H](CCCCN)C(=O)N[C@@H](CCC(N)=O)C(=O)N[C@@H](CCCNC(=N)N)C(=O)N[C@@H](CCC(=O)O)C(=O)N[C@@H](CCCCN)C(=O)N[C@@H](C)C(=O)N[C@@H](CCC(=O)O)C(=O)N[C@@H](CCCCN)C(=O)N[C@@H](CC(N)=O)C(=O)N[C@@H](CCCCN)C(=O)N[C@@H](CCC(N)=O)C(=O)N[C@H](C(=O)N[C@@H](CC(C)C)C(=O)N[C@@H](C)C(=O)N[C@@H](CCC(N)=O)C(=O)N[C@H](C(N)=O)C(C)C)[C@@H](C)CC)[C@@H](C)CC)[C@@H](C)CC)C(C)C)C(C)C` [compound 121] (H-IVLSLDVPIKLK([AEEA-AEEA-γGlu-C18 diacid])QILLKQERQKKQREKAEKNKQILAQV-NH2) were 0.73 nM, 41.3 nM, greater than 100 nM and -1.1%.
With `CC[C@H](C)[C@H](N)C(=O)N[C@H](C(=O)N[C@@H](CC(C)C)C(=O)N[C@@H](CO)C(=O)N[C@@H](CC(C)C)C(=O)N[C@@H](CC(=O)O)C(=O)N[C@H](C(=O)N1CCC[C@H]1C(=O)N[C@H](C(=O)N[C@@H](CCCCN)C(=O)N[C@@H](CC(C)C)C(=O)N[C@@H](CCCCNC(=O)COCCOCCNC(=O)COCCOCCNC(=O)CC[C@H](NC(=O)CCCCCCCCCCCCCCCCC(=O)O)C(=O)O)C(=O)N[C@@H](CCC(N)=O)C(=O)N[C@H](C(=O)N[C@@H](CC(C)C)C(=O)N[C@@H](CC(C)C)C(=O)N[C@@H](CCCCN)C(=O)N[C@@H](CCC(N)=O)C(=O)N[C@@H](CCC(=O)O)C(=O)N[C@@H](CCCNC(=N)N)C(=O)N[C@@H](CCC(N)=O)C(=O)N[C@@H](CCCCN)C(=O)N[C@@H](CCCCN)C(=O)N[C@@H](CCC(N)=O)C(=O)N[C@@H](CCCNC(=N)N)C(=O)N[C@@H](CCC(N)=O)C(=O)N[C@@H](CCC(N)=O)C(=O)N[C@@H](C)C(=O)N[C@@H](CCC(=O)O)C(=O)N[C@@H](CCCCN)C(=O)N[C@@H](CC(N)=O)C(=O)N[C@@H](CCCCN)C(=O)N[C@@H](CCC(N)=O)C(=O)N[C@H](C(=O)N[C@@H](CC(C)C)C(=O)N[C@@H](C)C(=O)N[C@@H](CCC(N)=O)C(=O)N[C@H](C(N)=O)C(C)C)[C@@H](C)CC)[C@@H](C)CC)[C@@H](C)CC)C(C)C)C(C)C` [compound 122] (H-IVLSLDVPIKLK([AEEA-AEEA-γGlu-C18 diacid])QILLKQERQKKQRQQAEKNKQILAQV-NH2; N-terminus assumed), the EC50 on human CRF2α receptor (setting [1]) is 0.04 nM; on human CRF2α receptor (setting [2]), 1.71 nM; at CRF1R receptor, greater than 100 nM. Moreover, the Emax on CRF1R receptor was determined as 6.9%.
